# Test results from publication PMC4678810 (Nucleic Acids Research, 2015).
# Experiments:
# YlTrm9N19-Trm112 = YlTrm9N19-Trm112 (Yarrowia lipolytica, UniProt Q6C999)
# YlTrm9N38-Trm112 = YlTrm9N38-Trm112 (Yarrowia lipolytica, UniProt Q6C999)
# [1] = target: YlTrm9-Trm112 (full-length) (Yarrowia lipolytica, UniProt Q6C999)
# Sequence of YlTrm9-Trm112 (full-length) (Q6C999 1-234): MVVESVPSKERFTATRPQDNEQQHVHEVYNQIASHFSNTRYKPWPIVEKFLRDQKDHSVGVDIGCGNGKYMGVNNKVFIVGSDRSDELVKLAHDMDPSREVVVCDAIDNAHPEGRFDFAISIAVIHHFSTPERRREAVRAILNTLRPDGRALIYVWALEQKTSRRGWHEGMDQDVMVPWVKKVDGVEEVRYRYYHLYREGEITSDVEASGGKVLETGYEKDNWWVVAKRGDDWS
# Sequence of YlTrm9-Trm112 (full-length) (Q6C4P5 1-130 partner): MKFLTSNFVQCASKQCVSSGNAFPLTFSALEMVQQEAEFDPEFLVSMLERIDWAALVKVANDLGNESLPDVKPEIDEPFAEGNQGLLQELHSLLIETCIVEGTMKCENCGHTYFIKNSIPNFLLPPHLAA
# Sequence of YlTrm9N38-Trm112 (Q6C999 38-234): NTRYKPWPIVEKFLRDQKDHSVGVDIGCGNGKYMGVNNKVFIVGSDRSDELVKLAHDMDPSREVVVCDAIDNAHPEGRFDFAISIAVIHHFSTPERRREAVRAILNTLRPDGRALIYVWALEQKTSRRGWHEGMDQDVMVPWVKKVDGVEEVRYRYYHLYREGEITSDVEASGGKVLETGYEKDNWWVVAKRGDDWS
# Sequence of YlTrm9N38-Trm112 (Q6C4P5 1-130 partner): as the sequence (Q6C4P5 1-130 partner) above
# Sequence of YlTrm9N19-Trm112 (Q6C999 19-234): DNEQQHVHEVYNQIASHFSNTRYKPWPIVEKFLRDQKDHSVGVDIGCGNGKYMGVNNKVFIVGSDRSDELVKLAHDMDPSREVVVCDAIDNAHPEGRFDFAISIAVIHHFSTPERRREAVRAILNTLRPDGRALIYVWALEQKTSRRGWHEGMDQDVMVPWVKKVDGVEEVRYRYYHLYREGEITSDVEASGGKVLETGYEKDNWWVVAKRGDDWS
# Sequence of YlTrm9N19-Trm112 (Q6C4P5 1-130 partner): as the sequence (Q6C4P5 1-130 partner) above
structure (smiles),measurement,setting,value
C[S+](CC[C@H](N)C(=O)O)C[C@H]1O[C@@H](n2cnc3c(N)ncnc32)[C@H](O)[C@@H]1O (stereo partly drawn) [SAM],affinity for SAM,YlTrm9N19-Trm112,both truncated forms were strongly affected in their enzymatic activity
same,affinity for SAM,YlTrm9N38-Trm112,displayed the same affinity for SAM
same,affinity for SAM,[1],displayed the same affinity for SAM
